# Assay results from patent publication US20260158056A1, “USE OF LOW MOLECULAR WEIGHT HYALURONIC ACID FOR THE TREATMENT OF LUNG MUCOSAL INFLAMMATION” (INSTITUT NATIONAL DE LA SANTÉ ET DE LA RECHERCHE MÉDICALE, priority 2021, published 2026).
# How the values were obtained:
# Assay type in all cases: cell-based
# [1] = test system: IL-8 secreted by human COPD airway epithelial cells; assay: IL-8 ELISA, COPD airway epithelial cell monolayers, Cytomix 24 h then Cytomix + treatment 24 h (curative); conditions: FIG. 17, 19; curative: Cytomix 24 h, then Cytomix + HA 1 mg/mL or Dexa 10^-6M 24 h; n=5 COPD patients
# Description: (§1) FIG. 17: Measurement by ELISA assay of the pro-inflammatory chemokine IL-8 secreted human COPD airway epithelial cells cultured as monolayers. Airway epithelial cells were seeded in 48-wells plates and cultured until confluence was reached. Cells were then treated for 24 h with a pro-inflammatory chemokine cocktail (TNFα, IL1β and IFNγ 10 ng/ml each) called Cytomix (Cy). Cells were thereafter treated with a combo containing Cytomix and the anti-inflammatory dexamethasone (Dexa; 10^-6M), 15-45 kDa sodium-hyaluronic acid (HA-Na 15-45 kDa) (ARD—Pomacle—France—as prepared according to WO2004050187), 15-30 kDa sodium-hyaluronic acid (HA-Na 15-30 kDa) (Sigma Aldrich), or 30-50 kDa sodium-hyaluronic acid (HA-Na 30-50 kDa) (Sigma Aldrich) at 1 mg/mL during the following 24 h. The culture medium was finally collected and the IL-8 content was determined by ELISA assay. n=5 different COPD patients. p<0.001 (***); p<0.01 (**); p<0.05 (*). ns: non-significant.
# FIG. 19: Measurement by ELISA assay of the pro-inflammatory chemokine IL-8 secreted by human COPD airway epithelial cells cultured as monolayers. Airway epithelial cells were seeded in 48-wells plates and cultured until confluence was reached. Cells were then treated for 24 h with a pro-inflammatory chemokine cocktail (TNFα, IL1β and IFNγ 10 ng/ml each) called Cytomix (Cy). Cells were thereafter treated with a combo containing Cytomix and the anti-inflammatory dexamethasone (Dexa; 10^-6M), or 15-45 kDa sodium-hyaluronic acid (HA-Na 15-45 kDa) (ARD—Pomacle—France—as prepared according to WO2004050187), 15-45 kDa calcium-hyaluronic acid (HA-Ca 15-45 kDa; ARD), or 15-45 kDa potassium hyaluronic acid (HA-K 15-45 kDa; ARD) at 1 mg/mL during the following 24 h. The culture medium was finally collected and the IL-8 content was determined. n=5 different COPD patients. p<0.001 (***); p<0.01 (**); p<0.05 (*). ns: non-significant.
# [2] = test system: IL-8 secreted by non-CF human airway epithelial cells; assay: IL-8 ELISA, non-CF airway epithelial cell monolayers, Cytomix 24 h then Cytomix + treatment 24 h (curative); conditions: FIG. 12, 15; curative: Cytomix 24 h, then Cytomix + HA 1 mg/mL or Dexa 10^-6M 24 h; n=8 non-CF patients
# Description: as §1, with “12:” for “17:”, “secreted non-CF” for “secreted”, “human” for “human COPD”, “n=8” for “n=5”, “non-CF” for “COPD”
# (§2) FIG. 15: Measurement by ELISA assay of the pro-inflammatory chemokine IL-8 secreted by non-CF human airway epithelial cells cultured as monolayers. Airway epithelial cells were seeded in 48-wells plates and cultured until confluence was reached. Cells were then treated for 24 h with a pro-inflammatory chemokine cocktail (TNFα, IL1β and IFNγ 10 ng/ml each) called Cytomix (Cy). Cells were thereafter treated with a combo containing Cytomix and the anti-inflammatory dexamethasone (Dexa; 10^-6M), 15-45 kDa sodium-hyaluronic acid (HA-Na 15-45 kDa) (ARD—Pomacle—France—as prepared according to WO2004050187), 15-45 kDa calcium-hyaluronic acid (HA-Ca 15-45 kDa; ARD), or 15-45 kDa potassium hyaluronic acid (HA-K 15-45 kDa; ARD) at 1 mg/mL during the following 24 h. The culture medium was finally collected and the IL-8 content was determined. n=8 different non-CF patients. p<0.001 (***); p<0.01 (**); p<0.05 (*). ns: non-significant.
# [3] = test system: IL-8 secreted by non-CF human airway epithelial cells; assay: IL-8 ELISA, non-CF airway epithelial cell monolayers, Cytomix + treatment 24 h (co-treatment); conditions: FIG. 13, 16; co-treatment: Cytomix + HA 1 mg/mL or Dexa 10^-6M 24 h; n=8 non-CF patients
# Description: FIG. 13: Measurement by ELISA assay of the pro-inflammatory chemokine IL-8 secreted by non-CF human airway epithelial cells cultured as monolayers. Airway epithelial cells were seeded in 48-wells plates and cultured until confluence was reached. Cells were then treated for 24 h with a combo containing a pro-inflammatory chemokine cocktail (TNFα, IL1β and IFNγ 10 ng/ml each) called Cytomix (Cy) and the anti-inflammatory dexamethasone (Dexa; 10^-6M), 15-45 kDa sodium-hyaluronic acid (HA-Na 15-45 kDa) (ARD—Pomacle—France—as prepared according to WO2004050187), 15-30 kDa sodium-hyaluronic acid (HA-Na 15-30 kDa) (Sigma Aldrich), or 30-50 kDa sodium-hyaluronic acid (HA-Na 30-50 kDa) (Sigma Aldrich) at 1 mg/mL. The culture medium was then collected and the IL-8 content was determined. n=8 different non-CF patients. p<0.001 (***); p<0.01 (**); p<0.05 (*). ns: non-significant.
# as §2, with “FIG. 16: Measurement by” for “FIG. 15: Measurement by”, “with a combo containing a pro-inflammatory chemokine” for “with a pro-inflammatory chemokine”, “called Cytomix (Cy) and the” for “called Cytomix (Cy). Cells were thereafter treated with a combo containing Cytomix and the”, “at 1 mg/mL. The culture” for “at 1 mg/mL during the following 24 h. The culture”, “medium was then collected and” for “medium was finally collected and”
Compound,decrease in IL-8 secretion [1] [%],decrease in IL-8 secretion [2] [%],decrease in IL-8 secretion [3] [%]
15-30 kDa sodium-hyaluronic acid [HA-Na 15-30 kDa],65,46.1,38.1
15-45 kDa calcium-hyaluronic acid [HA-Ca 15-45 kDa],61.5,6.5,8.5
15-45 kDa potassium-hyaluronic acid [HA-K 15-45 kDa],61.1,17.8,22.2
15-45 kDa sodium-hyaluronic acid [HA-Na 15-45 kDa],60.2,39.6,41.6
30-50 kDa sodium-hyaluronic acid [HA-Na 30-50 kDa],69.5,34.8,32.1
"C[C@@H]1C[C@H]2[C@@H]3CCC4=CC(=O)C=C[C@]4(C)[C@@]3(F)[C@@H](O)C[C@]2(C)[C@@]1(O)C(=O)CO [Dexamethasone, dexamethasone, reference compound]",68.8,21.1,33.9
